According to patent US10934296B2, “4-imidazopyridazin-1-yl-benzamides as Btk inhibitors” (Merck Sharp & Dohme B.V., priority 2011, dated 2021):

How the values were obtained:
[1] = target: Btk enzyme (His-Btk) (Homo sapiens (Human), UniProt Q06187); assay: Btk enzyme activity, IMAP fluorescence polarization assay; conditions: 60 min pre-incubation, 5 μM ATP
[2] = target: Lck enzyme (Homo sapiens (Human), UniProt P06239); assay: Lck enzyme activity, IMAP fluorescence polarization assay; conditions: 60 min pre-incubation, 6 μM ATP, bin bounds in μM
Sequence of Lck enzyme (P06239 whole entry): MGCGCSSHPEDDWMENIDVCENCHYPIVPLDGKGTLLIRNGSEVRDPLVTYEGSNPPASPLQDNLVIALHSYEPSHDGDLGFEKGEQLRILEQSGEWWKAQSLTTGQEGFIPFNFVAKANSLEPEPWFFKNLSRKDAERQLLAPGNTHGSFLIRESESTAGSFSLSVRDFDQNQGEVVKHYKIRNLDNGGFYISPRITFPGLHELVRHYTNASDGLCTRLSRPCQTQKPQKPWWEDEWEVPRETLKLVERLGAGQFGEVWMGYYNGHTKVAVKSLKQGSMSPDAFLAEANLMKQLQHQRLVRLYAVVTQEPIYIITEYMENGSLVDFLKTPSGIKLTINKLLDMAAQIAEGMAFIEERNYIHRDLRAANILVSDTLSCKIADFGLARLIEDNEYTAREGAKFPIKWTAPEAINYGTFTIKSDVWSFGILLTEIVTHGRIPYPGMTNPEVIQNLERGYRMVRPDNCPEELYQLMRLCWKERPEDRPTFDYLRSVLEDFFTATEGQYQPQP

[3] = target: Lyn enzyme (Homo sapiens (Human), UniProt P07948); assay: Lyn enzyme activity, IMAP fluorescence polarization assay; conditions: 60 min pre-incubation, 2 μM ATP, bin bounds in μM
Sequence of Lyn enzyme (P07948 whole entry): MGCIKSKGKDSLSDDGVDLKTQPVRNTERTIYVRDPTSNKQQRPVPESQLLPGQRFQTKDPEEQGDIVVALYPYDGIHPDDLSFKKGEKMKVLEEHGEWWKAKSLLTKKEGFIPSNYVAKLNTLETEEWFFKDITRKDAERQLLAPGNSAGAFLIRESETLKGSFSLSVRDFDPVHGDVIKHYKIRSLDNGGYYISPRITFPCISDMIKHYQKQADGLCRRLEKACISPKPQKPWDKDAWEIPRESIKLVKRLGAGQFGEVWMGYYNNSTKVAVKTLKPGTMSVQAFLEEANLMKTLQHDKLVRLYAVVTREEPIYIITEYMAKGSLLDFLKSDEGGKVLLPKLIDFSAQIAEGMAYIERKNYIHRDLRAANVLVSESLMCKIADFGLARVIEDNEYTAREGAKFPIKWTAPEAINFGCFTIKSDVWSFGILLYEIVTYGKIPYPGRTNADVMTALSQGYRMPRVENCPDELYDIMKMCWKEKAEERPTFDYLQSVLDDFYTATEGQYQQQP

Sequence of Btk enzyme (His-Btk) (Q06187 whole entry): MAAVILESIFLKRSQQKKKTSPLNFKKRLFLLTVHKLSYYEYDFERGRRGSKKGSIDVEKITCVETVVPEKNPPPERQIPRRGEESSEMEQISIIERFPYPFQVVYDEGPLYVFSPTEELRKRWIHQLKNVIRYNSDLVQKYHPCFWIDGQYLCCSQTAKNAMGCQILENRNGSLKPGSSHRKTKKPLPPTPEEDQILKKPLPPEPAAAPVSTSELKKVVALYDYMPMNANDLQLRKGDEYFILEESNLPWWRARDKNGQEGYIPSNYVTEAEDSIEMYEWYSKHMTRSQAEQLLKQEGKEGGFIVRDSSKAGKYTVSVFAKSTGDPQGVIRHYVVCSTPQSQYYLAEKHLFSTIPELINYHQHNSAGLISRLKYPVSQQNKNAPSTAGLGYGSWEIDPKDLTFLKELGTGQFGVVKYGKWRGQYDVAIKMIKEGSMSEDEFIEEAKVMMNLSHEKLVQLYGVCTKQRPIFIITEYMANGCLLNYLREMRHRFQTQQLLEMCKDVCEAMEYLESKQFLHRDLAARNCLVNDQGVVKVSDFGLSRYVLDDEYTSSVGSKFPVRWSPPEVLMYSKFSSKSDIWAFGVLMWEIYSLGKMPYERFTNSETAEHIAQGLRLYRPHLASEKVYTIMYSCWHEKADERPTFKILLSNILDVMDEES

Compound	EC50 Btk activity values ([1]; bin bounds in nM) [nM]	EC50 Lck activity values [2] [µM]	other results
CC#CC(=O)N1CCC[C@H]1c1nc(-c2ccc(C(=O)Nc3nccs3)cc2)c2c(N)nccn12 [Example 60, (S)-4-(8-amino-3-(1-but-2-ynoylpyrrolidin-2-yl)imidazo[1,5-a]pyrazin-1-yl)-N-(thiazol-2-yl)benzamide]	<100	<1	EC50 Lyn activity values [3]: <1 µM
C=CC(=O)N1CCC[C@H]1c1nc(-c2ccc(C(=O)Nc3cc(C(F)(F)F)ccn3)cc2)c2c(N)nccn12 [Example 62, (S)-4-(3-(1-acryloylpyrrolidin-2-yl)-8-aminoimidazo[1,5-a]pyrazin-1-yl)-N-(4-(trifluoromethyl)pyridin-2-yl)benzamide]		<1	
CC#CC(=O)N1CCCC[C@H]1c1nc(-c2ccc(C(=O)Nc3cc(CCC)ccn3)cc2)c2c(N)nccn12 [Example 64, (S)-4-(8-amino-3-(1-but-2-ynoylpiperidin-2-yl)imidazo[1,5-a]pyrazin-1-yl)-N-(4-propylpyridin-2-yl)benzamide]		<1	
CCCc1ccnc(NC(=O)c2ccc(-c3nc([C@H](C)N(C)C(=O)/C=C/CN(C)C)n4ccnc(N)c34)cc2)c1 [Example 76, (S,E)-4-(8-amino-3-(1-(4-(dimethylamino)-N-methylbut-2-enamido)ethyl)imidazo[1,5-a]pyrazin-1-yl)-N-(4-propylpyridin-2-yl)benzamide]		<1	
CC#CC(=O)N1CCC[C@H]1c1nc(-c2ccc(C(=O)Nc3ccccn3)c(OC)c2)c2c(N)nccn12 [Example 99, (S)-4-(8-amino-3-(1-but-2-ynoylpyrrolidin-2-yl)imidazo[1,5-a]pyrazin-1-yl)-2-methoxy-N-(pyridin-2-yl)benzamide]	<100		
COC/C=C/C(=O)N1CCC[C@H]1c1nc(-c2ccc(C(=O)Nc3ccccn3)c(OC)c2)c2c(N)nccn12 [Example 103, (S,E)-4-(8-amino-3-(1-(4-methoxybut-2-enoyl)pyrrolidin-2-yl)imidazo[1,5-a]pyrazin-1-yl)-2-methoxy-N-(pyridin-2-yl)benzamide]	<100		
Nc1nccn2c([C@@H]3CCCN3C(=O)/C=C/c3ccccc3)nc(-c3ccc(C(=O)Nc4ccccn4)cc3)c12 [Example 104, (S,E)-4-(8-amino-3-(1-cinnamoylpyrrolidin-2-yl)imidazo[1,5-a]pyrazin-1-yl)-N-(pyridin-2-yl)benzamide]		<1	EC50 Btk activity values ([1]; bin bounds in μM): <1000 nM
C[C@H](NC(=O)c1ccnc(Cl)n1)c1nc(-c2ccc(C(=O)Nc3ccccn3)cc2)c2c(N)nccn12 [Example 105, (S)-N-(1-(8-amino-1-(4-(pyridin-2-ylcarbamoyl)phenyl)imidazo[1,5-a]pyrazin-3-yl)ethyl)-2-chloropyrimidine-4-carboxamide]	<100		
CC#CC(=O)N1CCC[C@H]1c1nc(-c2ccc(C(=O)Nc3cc(F)ccn3)cc2)c2c(N)nccn12 [Example 106, (S)-4-(8-amino-3-(1-but-2-ynoylpyrrolidin-2-yl)imidazo[1,5-a]pyrazin-1-yl)-N-(4-fluoropyridin-2-yl)benzamide]	<100		
CC#CC(=O)NCc1nc(-c2ccc(C(=O)Nc3ccccn3)cc2)c2c(N)nccn12 [Example 112, 4-(8-amino-3-(but-2-ynamidomethyl)imidazo[1,5-a]pyrazin-1-yl)-N-(pyridin-2-yl)benzamide]	<100		
CC#CC(=O)N(C)[C@@H](C)c1nc(-c2ccc(C(=O)Nc3cc(CCC)ccn3)cc2)c2c(N)nccn12 [Example 113, (S)-4-(8-amino-3-(1-(N-methylbut-2-ynamido)ethyl)imidazo[1,5-a]pyrazin-1-yl)-N-(4-propylpyridin-2-yl)benzamide]	<100		
CCCc1ccnc(NC(=O)c2ccc(-c3nc([C@@H]4CCCCN4C(=O)/C=C/COC)n4ccnc(N)c34)cc2F)c1 [Example 114, (S,E)-4-(8-amino-3-(1-(4-methoxybut-2-enoyl)piperidin-2-yl)imidazo[1,5-a]pyrazin-1-yl)-2-fluoro-N-(4-propylpyridin-2-yl)benzamide]	<100		
Nc1nccn2c([C@@H]3CCCN3C(=O)c3ccnc(Cl)n3)nc(-c3ccc(C(=O)Nc4cc(C(F)(F)F)ccn4)cc3)c12 [Example 119, (S)-4-(8-amino-3-(1-(2-chloropyrimidine-4-carbonyl)pyrrolidin-2-yl)imidazo[1,5-a]pyrazin-1-yl)-N-(4-(trifluoromethyl)pyridin-2-yl)benzamide]	<100		
C=CC(=O)N1CCC[C@H]1c1nc(-c2ccc(C(=O)Nc3cc(C#N)ccn3)cc2)c2c(N)nccn12 [Example 122, (S)-4-(3-(1-acryloylpyrrolidin-2-yl)-8-aminoimidazo[1,5-a]pyrazin-1-yl)-N-(4-cyanopyridin-2-yl)benzamide]		<1	
C=CC(=O)N1CCC[C@H]1c1nc(-c2ccc(C(=O)Nc3cc(C)ccn3)cc2)c2c(N)nccn12 [Example 124, (S)-4-(3-(1-acryloylpyrrolidin-2-yl)-8-aminoimidazo[1,5-a]pyrazin-1-yl)-N-(4-methylpyridin-2-yl)benzamide]		<1	EC50 Lyn activity values [3]: <1 µM
C=CC(=O)N1CCC[C@H]1c1nc(-c2ccc(C(=O)Nc3cc(CCC)ccn3)cc2)c2c(N)nccn12 [Example 125, (S)-4-(3-(1-acryloylpyrrolidin-2-yl)-8-aminoimidazo[1,5-a]pyrazin-1-yl)-N-(4-propylpyridin-2-yl)benzamide]		<1	EC50 Lyn activity values [3]: <1 µM
C=CC(=O)N1CCC[C@H]1c1nc(-c2ccc(C(=O)Nc3cc(CC)ccn3)cc2)c2c(N)nccn12 [Example 126, (S)-4-(3-(1-acryloylpyrrolidin-2-yl)-8-aminoimidazo[1,5-a]pyrazin-1-yl)-N-(4-ethylpyridin-2-yl)benzamide]		<1	EC50 Lyn activity values [3]: <1 µM
CC#CC(=O)N1CCC[C@H]1c1nc(-c2ccc(C(=O)Nc3cc(-c4ccccc4)ccn3)cc2)c2c(N)nccn12 [Example 132, (S)-4-(8-amino-3-(1-but-2-ynoylpyrrolidin-2-yl)imidazo[1,5-a]pyrazin-1-yl)-N-(4-phenylpyridin-2-yl)benzamide]		<1	
C=CC(=O)N1CCC[C@H]1c1nc(-c2ccc(C(=O)Nc3cc(-c4ccccc4)ccn3)cc2)c2c(N)nccn12 [Example 133, (S)-4-(3-(1-acryloylpyrrolidin-2-yl)-8-aminoimidazo[1,5-a]pyrazin-1-yl)-N-(4-phenylpyridin-2-yl)benzamide]		<1	EC50 Lyn activity values [3]: <1 µM
